US7973069B2 (PTC Therapeutics, Inc., priority 2004, dated 2011)
Several values for one entry are separate records, joined by “and”; a condition that tells them apart may be missing. Identical values can stand only once.

System: HCV replicon
Format: cell-based

Row | SMILES | IC50
1 | CCCOC(=O)Nc1ccc(-c2c(C#N)c3ccc(OCC)cc3n2CCC)cc1 [Compound 1055] | 0.5 to 2 µM and < 0.5 µM
2 | CCCn1c(-c2ccc(NC(=O)OC(C)C)cc2)c(C#N)c2ccc(OCC)cc21 [Compound 1056] | < 0.5 µM
3 | CCOc1ccc2c(C#N)c(-c3ccc(NC(=O)OC(C)C)cc3)n(C(C)C)c2c1 [Compound 1058] | < 0.5 µM
4 | CCOc1ccc2c(C#N)c(-c3ccc(NC(=O)OCCF)cc3)n(CC(C)C)c2c1 [Compound 1059] | 0.5 to 2 µM
5 | CCNC(=O)Nc1ccc(-c2c(C#N)c3ccc(OCC)cc3n2CC(C)C)cc1 [Compound 1060] | 0.5 to 2 µM
6 | CCCNC(=O)Nc1ccc(-c2c(C#N)c3ccc(OCC)cc3n2CC(C)C)cc1 [Compound 1061] | 0.5 to 2 µM
7 | CCCn1c(-c2ccc(NC(=O)OC)cc2)c(C#N)c2ccc(OCC)cc21 [Compound 1062] | 0.5 to 2 µM
8 | CCCn1c(-c2ccc(NC(=O)OCC)cc2)c(C#N)c2ccc(OCC)cc21 [Compound 1063] | 0.5 to 2 µM
9 | CCCn1c(-c2ccc(NC(=O)OCCF)cc2)c(C#N)c2ccc(OCC)cc21 [Compound 1064] | 0.5 to 2 µM
10 | CCOC(=O)Nc1ccc(-c2c(C#N)c3ccc(OCC)cc3n2C(C)C)cc1 [Compound 1065] | 0.5 to 2 µM and < 0.5 µM
11 | CCCCn1c(-c2ccc(NC(=O)NCCC)cc2)c(C#N)c2ccc(OCC)cc21 [Compound 1066] | 0.5 to 2 µM
12 | CCCCNC(=O)Nc1cccc(-c2c(C#N)c3ccc(OCCCN4CCOCC4)cc3n2CC)c1 [Compound 1067] | 0.5 to 2 µM
13 | CCn1c(-c2cccc(N3CCNC3=O)c2)c(C#N)c2ccc(OCCCN3CCOCC3)cc21 [Compound 1068] | 0.5 to 2 µM
14 | CCn1c(-c2cccc(N3CCOC3=O)c2)c(C#N)c2ccc(OCCCN3CCOCC3)cc21 [Compound 1069] | 0.5 to 2 µM
15 | C=CCNC(=O)Nc1ccc(-c2c(C#N)c3ccc(OC(F)F)cc3n2CC2CC2)cc1 [Compound 1070] | 0.5 to 2 µM
16 | CC(C)COC(=O)Nc1ccc(-c2c(C#N)c3ccc(OC(F)F)cc3n2CC2CC2)cc1 [Compound 1071] | 0.5 to 2 µM and > 2 µM
17 | CCOc1ccc2c(C#N)c(-c3ccc(NC(=O)OC(C)(C)C)cc3)n(C3CCC3)c2c1 [Compound 1072] | < 0.5 µM
18 | CCOC(=O)Nc1ccc(-c2c(C#N)c3ccc(OC)cc3n2C2CCC2)cc1 [Compound 1073] | 0.5 to 2 µM
19 | CCCOC(=O)Nc1ccc(-c2c(C#N)c3ccc(OC)cc3n2C2CCC2)cc1 [Compound 1074] | 0.5 to 2 µM
20 | CCCCOC(=O)Nc1ccc(-c2c(C#N)c3ccc(OC)cc3n2C2CCC2)cc1 [Compound 1075] | 0.5 to 2 µM
21 | COc1ccc2c(C#N)c(-c3ccc(NC(=O)OC(C)C)cc3)n(C3CCC3)c2c1 [Compound 1076] | < 0.5 µM
22 | CCCCOC(=O)Nc1ccc(-c2c(C#N)c3ccc(OC)cc3n2C2CCC2)cc1 [Compound 1077] | < 0.5 µM
23 | COc1ccc2c(C#N)c(-c3ccc(NC(=O)OCC(C)(C)C)cc3)n(C3CCC3)c2c1 [Compound 1078] | < 0.5 µM and 0.5 to 2 µM
24 | COc1ccc2c(C#N)c(-c3ccc(NC(=O)OCc4ccccc4)cc3)n(C3CCC3)c2c1 [Compound 1079] | < 0.5 µM
25 | CCOc1ccc2c(C#N)c(-c3ccc(NC(=O)NC(C)C)cc3)n(C3CCC3)c2c1 [Compound 1080] | < 0.5 µM
26 | CCOP(=O)(Nc1ccc(-c2c(C#N)c3ccc(OC)cc3n2C2CCC2)cc1)OCC [Compound 1081] | 0.5 to 2 µM
27 | COc1ccc2c(C#N)c(-c3ccc(NC(=O)NC(C)C)cc3)n(C3CCC3)c2c1 [Compound 1082] | 0.5 to 2 µM

Row | SMILES | IC50
28 | CCn1c(-c2ccc(N3CCOC3=O)cc2)c(C#N)c2ccc(OCCCn3cncn3)cc21 [Compound 1084] | 0.5 to 2 µM
29 | CCn1c(-c2ccc(N3CCNC3=O)cc2)c(C#N)c2ccc(OCCCN3CCCC3)cc21 [Compound 1085] | < 0.5 µM
30 | CCCCOC(=O)Nc1ccc(-c2c(C#N)c3ccc(O)cc3n2CC)cc1 [Compound 1086] | < 0.5 µM
31 | CCn1c(-c2ccc(NC(=O)N3CCOCC3)cc2)c(C#N)c2ccc(OC)cc21 [Compound 1087] | 0.5 to 2 µM
32 | CCn1c(-c2ccc(NC(=O)N3CCCCC3)cc2)c(C#N)c2ccc(OC)cc21 [Compound 1088] | 0.5 to 2 µM
33 | CCn1c(-c2ccc(NC(=O)N3CCCC3)cc2)c(C#N)c2ccc(OC)cc21 [Compound 1089] | 0.5 to 2 µM
34 | CCn1c(-c2ccc(NC(=O)C3CC3)cc2)c(C#N)c2ccc(OCCN3CCSCC3)cc21 [Compound 1090] | 0.5 to 2 µM
35 | CCn1c(-c2ccc(NC(=O)C3CC3)cc2)c(C#N)c2ccc(OCCN(C)CCOC)cc21 [Compound 1091] | 0.5 to 2 µM
36 | CCn1c(-c2ccc(NC(=O)C3CC3)cc2)c(C#N)c2ccc(OCCn3cnnc3)cc21 [Compound 1092] | 0.5 to 2 µM
37 | CCn1c(-c2ccc(NC(=O)C3CC3)cc2)c(C#N)c2ccc(OCCn3cncn3)cc21 [Compound 1093] | 0.5 to 2 µM
38 | CCCn1c(-c2ccc(NC(=O)NCC)cc2)c(C#N)c2ccc(OCC)cc21 [Compound 1094] | 0.5 to 2 µM
39 | CCCNC(=O)Nc1ccc(-c2c(C#N)c3ccc(OCC)cc3n2CCC)cc1 [Compound 1095] | < 0.5 µM
40 | CCCCNC(=O)Nc1ccc(-c2c(C#N)c3ccc(OCC)cc3n2CCC)cc1 [Compound 1097] | < 0.5 µM
41 | CCNC(=O)Nc1ccc(-c2c(C#N)c3ccc(OCC)cc3n2C(C)C)cc1 [Compound 1098] | 0.5 to 2 µM
42 | CCCNC(=O)Nc1ccc(-c2c(C#N)c3ccc(OCC)cc3n2C(C)C)cc1 [Compound 1099] | 0.5 to 2 µM
43 | CCOc1ccc2c(C#N)c(-c3ccc(NC(=O)NC(C)C)cc3)n(C(C)C)c2c1 [Compound 1100] | < 0.5 µM
44 | CCCCNC(=O)Nc1ccc(-c2c(C#N)c3ccc(OCC)cc3n2C(C)C)cc1 [Compound 1101] | < 0.5 µM
45 | CCOc1ccc2c(C#N)c(-c3ccc(NC(=O)NCCc4ccccc4)cc3)n(C(C)C)c2c1 [Compound 1102] | < 0.5 µM
46 | COc1ccc2c(C#N)c(-c3ccc(NS(=O)(=O)C(C)C)cc3)n(C3CCC3)c2c1 [Compound 1103] | 0.5 to 2 µM
47 | COc1ccc2c(C#N)c(-c3ccc(N4CCCS4(=O)=O)cc3)n(C3CCC3)c2c1 [Compound 1104] | 0.5 to 2 µM
48 | COc1ccc2c(C#N)c(-c3ccc(NC(=O)NC4CCCC4)cc3)n(C3CCC3)c2c1 [Compound 1106] | < 0.5 µM
49 | CC(C)NC(=O)Nc1ccc(-c2c(C#N)c3ccc(OCCF)cc3n2C2CCC2)cc1 [Compound 1108] | < 0.5 µM
50 | CCOc1ccc2c(C#N)c(-c3ccc(NC(=O)OC4CCCC4)cc3)n(C3CCC3)c2c1 [Compound 1109] | < 0.5 µM
51 | CCN1CCN(c2ccc(-c3c(C#N)c4ccc(OC)cc4n3CC)cc2)S1(=O)=O [Compound 1110] | 0.5 to 2 µM
52 | C=CCOC(=O)Nc1ccc(-c2c(C#N)c3cc(OC)c(OC)cc3n2CC)cc1 [Compound 1111] | 0.5 to 2 µM
53 | CCn1c(-c2ccc(NC(=O)OC)cc2)c(C#N)c2ccc(OCCCN3CCOCC3)cc21 [Compound 1112] | 0.5 to 2 µM
54 | CCn1c(-c2ccc(NC(=O)OCCF)cc2)c(C#N)c2ccc(OCCCN3CCOCC3)cc21 [Compound 1113] | 0.5 to 2 µM

Row | SMILES | IC50
55 | CCn1c(-c2ccc(NC(=O)OCCCl)cc2)c(C#N)c2ccc(OCCCN3CCOCC3)cc21 [Compound 1114] | < 0.5 µM
56 | CCn1c(-c2ccc(NS(=O)(=O)CC)cc2)c(C#N)c2ccc(OCCCN3CCOCC3)cc21 [Compound 1115] | 0.5 to 2 µM
57 | CCn1c(-c2ccc(NC(=O)OCCCl)cc2)c(C#N)c2ccc(OCCCN3CCOCC3)cc21 [Compound 1116] | 0.5 to 2 µM
58 | CCn1c(-c2ccc(NS(=O)(=O)C3CC3)cc2)c(C#N)c2ccc(OCCCN3CCOCC3)cc21 [Compound 1117] | 0.5 to 2 µM
59 | CCn1c(-c2ccc(NC(=O)NC)cc2)c(C#N)c2ccc(OCCCN3CCOCC3)cc21 [Compound 1118] | 0.5 to 2 µM
60 | CCCn1c(-c2ccc(NC(=O)NC(C)CC)cc2)c(C#N)c2ccc(OC)cc21 (centres unmarked) [Compound 1119] | 0.5 to 2 µM
61 | CCOc1ccc2c(C#N)c(-c3ccc(NC(=O)NC(C)C)cc3)n(CC3CC3)c2c1 [Compound 1120] | < 0.5 µM
62 | CC(C)(C)OC(=O)Nc1ccc(-c2c(C#N)c3ccc(OCCN4CCCC4)cc3n2C2CCC2)cc1 [Compound 1121] | < 0.5 µM
63 | CCCOC(=O)Nc1ccc(-c2c(C#N)c3ccc(OCCCN4CCOCC4)cc3n2CC)cc1 [Compound 1122] | < 0.5 µM
64 | CCNC(=O)Nc1ccc(-c2c(C#N)c3ccc(OCCCN4CCOCC4)cc3n2CC)cc1 [Compound 1124] | < 0.5 µM and 0.5 to 2 µM
65 | C=CCNC(=O)Nc1ccc(-c2c(C#N)c3ccc(OCCCN4CCOCC4)cc3n2CC)cc1 [Compound 1125] | < 0.5 µM
66 | CCn1c(-c2ccc(NC(=O)NCCCl)cc2)c(C#N)c2ccc(OCCCN3CCOCC3)cc21 [Compound 1126] | 0.5 to 2 µM
67 | CCOC(=O)Nc1ccc(-c2c(C#N)c3ccc(OCC)cc3n2C2CCCC2)cc1 [Compound 1127] | < 0.5 µM
68 | CCCOC(=O)Nc1ccc(-c2c(C#N)c3ccc(OCC)cc3n2C2CCCC2)cc1 [Compound 1128] | < 0.5 µM
69 | CCOc1ccc2c(C#N)c(-c3ccc(NC(=O)OC(C)C)cc3)n(C3CCCC3)c2c1 [Compound 1129] | < 0.5 µM
70 | CCOC(=O)Nc1ccc(-c2c(C#N)c3ccc(OC(F)F)cc3n2CC)cc1 [Compound 1131] | 0.5 to 2 µM
71 | CCCOC(=O)Nc1ccc(-c2c(C#N)c3ccc(OC(F)F)cc3n2CC)cc1 [Compound 1132] | 0.5 to 2 µM
72 | CCCCOC(=O)Nc1ccc(-c2c(C#N)c3ccc(OC(F)F)cc3n2CC)cc1 [Compound 1133] | 0.5 to 2 µM
73 | CCn1c(-c2ccc(NC(=O)OCC(C)C)cc2)c(C#N)c2ccc(OC(F)F)cc21 [Compound 1134] | 0.5 to 2 µM
74 | C=CCOC(=O)Nc1ccc(-c2c(C#N)c3ccc(OC(F)F)cc3n2CC)cc1 [Compound 1135] | < 0.5 µM
75 | CCCNC(=O)Nc1ccc(-c2c(C#N)c3ccc(OC(F)F)cc3n2CC)cc1 [Compound 1136] | 0.5 to 2 µM
76 | CCn1c(-c2ccc(NC(=O)NC(C)C)cc2)c(C#N)c2ccc(OC(F)F)cc21 [Compound 1137] | 0.5 to 2 µM
77 | CCCCNC(=O)Nc1ccc(-c2c(C#N)c3ccc(OC(F)F)cc3n2CC)cc1 [Compound 1138] | 0.5 to 2 µM
78 | C=CCNC(=O)Nc1ccc(-c2c(C#N)c3ccc(OC(F)F)cc3n2CC)cc1 [Compound 1139] | 0.5 to 2 µM
79 | CCCS(=O)(=O)Nc1ccc(-c2c(C#N)c3ccc(OCC)cc3n2C2CCCC2)cc1 [Compound 1140] | 0.5 to 2 µM
80 | CCOc1ccc2c(C#N)c(-c3ccc(NS(=O)(=O)C4CC4)cc3)n(C3CCCC3)c2c1 [Compound 1141] | 0.5 to 2 µM
